In patent US20240279520A1, “FLUORINE SUBSTITUTED ETHERS AND COMPOSITIONS, METHODS AND USES INCLUDING SAME” (Honeywell International Inc., priority 2022, published 2024):

Columns and labels:
Assay type in all cases: physicochemical
Density of fluoroethers = conditions: Table 2
[1] = Boiling point of fluoroethers; conditions: for Boiling point: Table 2; for Bp: Table 5
[2] = Experimental dielectric property measurements, Agilent 85070 Dielectric Probe; conditions: for Experimental Dk at 1 GHz / Experimental Loss Tangent at 1 GHZ: ambient pressure, approximately 23° C.; for Dielectric Constant (20 GHz): room temperature
Procedure: “Dielectric Constant” means the dielectric constant as measured at room temperature at 20 giga hertz (GHz).
Experimental dielectric property measurements were made on all liquids using the Agilent 85070 Dielectric Probe. All measurements were made at ambient pressure and room temperature (approximately 23° C.). Prior to making measurements, the system was calibrated from 1 GHz to 20 GHz with an open circuit, a short circuit, and DI water (@22.4° C.) standard. The result of the calibration is shown in the Table 5 below for DI H2O, and is consistent with DI water at 22.4° C. The accuracy of the probe is given as: Dielectric constant, er′=er′+/−0.05|er*| with er″=er″+/−0.05|er*| and (loss=er″/er′).

| Structure (SMILES) | Density (Density of fluoroethers) | Boiling point [1] [°C] | Bp [1] [°C] | Experimental Dk at 1 GHz [2] | Experimental Loss Tangent at 1 GHZ [2] | Dielectric Constant (20 GHz) [2] |
| --- | --- | --- | --- | --- | --- | --- |
| FC(F)OCC(F)(F)C(F)F [Compound 1, 3-(difluoromethoxy)-1,1,2,2-tetrafluoropropane] | 1.3-1.7 | 76 | 76 | 2.94 | 0.036 | 4.0 |
| FC(F)OCC(F)(F)C(F)(F)F [Compound 2, 3-(difluoromethoxy)-1,1,1,2,2-pentafluoropropane] | 1.3-1.7 | 46 | 46 | 5.21 | 0.038 | 3.4 |
| FC(F)OC(C(F)(F)F)C(F)(F)F [Compound 3, 2-(difluoromethoxy)-1,1,1,3,3,3-hexafluoropropane] | 1.3-1.7 | 41 | 41 |  |  | <5 |
| FC(F)OCC(F)(F)C(F)(F)C(F)(F)F [Compound 4, 4-(difluoromethoxy)-1,1,1,2,2,3,3-heptafluorobutane] | 1.3-1.7 | 69 | 69 | 4.51 | 0.054 | 2.8 |
| O [DI Water, reference compound] |  |  | 100 | 79.15 | 0.052 |  |
